Legend:
[1] = test system: Melanocyte-stimulating hormone receptor (Anolis carolinensis); assay: […] potency against Anolis carolinensis using lizard skin bioassay; effect did not continue after the removal of the compound
[2] = test system: Melanocyte-stimulating hormone receptor (Rana pipiens); assay: […] potency against Rana pipiens using frog skin bioassay; effect did not continue after the removal of the compound

`CCCC[C@H](NC(C)=O)C(=O)N[C@H]1CC(=O)NCCC[C@@H](C(N)=O)NC(=O)[C@H](Cc2c[nH]c3ccccc23)NC(=O)[C@H](CCCN=C(N)N)NC(=O)[C@@H](Cc2ccccc2)NC(=O)[C@H](Cc2cnc[nH]2)NC1=O` was tested, and the Relative potency [1] was 20 and the Relative potency [2] was 1.
